# Results reported in patent publication US7771426B2, “Bone treatment instrument and method” (University Health Network, priority 2004, dated 2010).
# “Also recorded” adds a separate entry of the source.
# Tests used:
# [1] = Effect of light dose on the rat spinal cord, spinal nerves and peripheral nerves (hind leg paralysis); format: in vivo, mu/mu nude rats
# Excerpt: (§1) Method: Thirty mu/mu nude rats were used in this part of the study. The rats received a left ventricular intracardiac injection with MT-1 cells as described earlier. At day 21 post injection each animal was anesthetized with 2% halothane/air mixture and placed on a custom made radiolucent stereotactic jig in the left lateral decubitus position. Prior to this it was established by histological methods that animals with tumors contained tumor in most vertebral bodies and long bones. Because lesions within the vertebral bodies could not be detected by fine detail radiography, T12 and L4 vertebrae were selected as representative levels for treatment. An 18 g needle was placed on the cortex of the targeted vertebrae or long bone with the use of a mini C-arm image intensifier. A 300 mW diode laser coupled to a 200 um fiber was used to deliver 690 nm light. BPD-MA was administered intravenously at a dose of 2 mg/kg prior to the administration of the light dose. […] Light doses ranged from 25 J to 150 J. Light was delivered at 150 mW for all treatments and the effects of different drug light intervals and different light doses using a fixed drug concentration were evaluated. The animals were examined for paralysis post treatment. The animals were sacrificed using CO2 inhalation. Vertebrae were then harvested and fixed in 10% formalin for 7 days. Micro-CT images were obtained and then the samples were decalcified in 10% formic acid for 7 days. The tissue was then blocked and paraffin embedded and 10 um sections were cut. The sections were analyzed under light microscopy using H&E staining as well as TUNEL and human EGF-r immunohistochemistry. The area of effect as denoted by necrosis and apoptosis was identified and measured using a Nikon slide scanner and Image Pro software.
# [2] = tested on: MT-1 cells, a human breast cancer cell line; assay: Effect of PDT in vertebrae and long bones with metastases (area of effect, histology); format: in vivo, mu/mu nude rats
# Excerpt: as §1
# [3] = tested on: MT-1luc+ metastatic lesions; assay: Targeted bioluminescent lesions, pre and post-PDT bioluminescent imaging; format: in vivo, nude mu/mu rats
# Method: Method: Twenty nude mu/mu (Harlan) female rats (4-6 weeks of age) were used in this part of the study. The protocol was in accordance with the Canadian Council on Animal Care prior to initiation. Prior to injection each animal was anesthetized with 2% halothane/air mixture in a sterile environment. Twenty animals were used for injection. The chest was prepared with alcohol and 2×10^6 MT-1luc+ cells, a human breast cancer cell line carrying the luciferase reporter gene, were injected into the left ventricle using a 1 ml syringe with a 26 g needle. Pulsatile blood in the syringe was ensured prior to each injection. The animals were placed back into their cages and fed water and rat chow ad libitum. At day 18 the animals were imaged using the Xenogen IVIS system. To do this 100 mg/kg luciferin was injected into the peritoneal cavity of each animal and each animal was imaged 5 minutes following injection for a 1 to 5 minute image acquisition period. The animals were then imaged on the same custom made stereotactic radiolucent jig using a mini-C-arm image intensifier which allowed correlation of the bioluminescent signal to the vertebrae. FIGS. 1A-C show stereotactic targeting of bioluminescent metastatic lesions using a mini-C-arm image intensifier. FIG. 1A is a bioluminescent overlay image of a nude rat with metastatic lesions on a radio lucent stereotactic jig. FIG. 1B is a fluoroscan image of markers placed along the grid of the stereotactic jig in correlation to the bioluminescent metastases and resulting in localization of the lesion.
# The lesions were then targeted and treated with 25 J or 150 J at a 3 hour drug light interval. The animals were then re-imaged with the Xenogen IVIS system 48 hours post treatment in the stereotactic frame. Signal intensity (photons/second/cm^2) at the targeted site before treatment was compared to signal intensity following treatment and compared to lesions not treated using Igor Pro software (Alameda, Calif.). The animals were then sacrificed using CO2 inhalation and the spines and long bones were harvested. Samples were placed in 10% formalin for 7 days and micro-CT images of the vertebrae and long bones were obtained. The vertebrae were examined histologically using H&E staining and immunohistologically with human EGF-r and TUNEL stains as described earlier. ANOVA Bonferroni and two-tailed paired T-test statistical techniques were applied.
# [4] = Treatment groups: deaths of rats; format: in vivo, mu/mu nude rats
# MT-1 cells = assay: PDT effect on in vitro MT-1 cells (SRB assay); format: cell-based, human
# Method: Method: MT-1 cells were grown and maintained in RPMI media containing penicillin and streptomycin with 10% fetal bovine serum at 37 degrees Celsius. Once the cells had reached subconfluence they were resuspended in free RPMI. The cells were harvested using 0.05% trypsin—0.05 mM EDTA solution. Cells were then counted with a hemocytometer and plated at 2×10^5 cells/ml in a 96 well plate. BPD-MA was then added to the individual wells at a concentration of 1 ug/ml or 10 ug/ml. […] Following treatment the cells were allowed to survive for 24 hours following which an SRB assay was performed to establish the number of viable cells remaining. Briefly, cells were fixed in 10% trichloroacetic acid and stained with a […] solution selectively staining viable cells. A spectrophotometer was then used to assess the absorbance of 540 nm light within individual wells of the 96 well plate which was correlated to the number of remaining cells following treatment.
# [5] = tested on: orthotopic chondrosarcoma and fibrosarcoma tumor models; conditions: 4 weeks post treatment; 15 minute and 3 hour drug light interval; cited from earlier work
# [6] = pig, in vivo
# Method: In this study, 50 kg pigs were used. The pigs were pre-anesthetized with ketamine/xylazine 20/2 mg/Kg IM for induction. An IV line was established and 0.9% saline solution was run at 5 ml/Kg/hr. Verteporfin was administered through the IV line using an infusion pump. The pigs were intubated and maintained on a ventilator with isofluorane/nitrous oxide inhalant by animal care professionals. The pigs were placed prone on a radiolucent surgical table with appropriate bolsters for support and padding. A sterile prep was made with betadine soap and scrub and prep solution. A small stab incision was made over the lumbothoracic spine of the pig.
# Placement into the vertebral body through a transpedicular and parapedicular approach was facilitated by the use of a CT-Carm. The L1 and L2 vertebrae were targeted.
# A cannulated exchange sheath was placed over the guide rod and inserted through the incision. The guide rod was then removed, and a fiber optic cable sheath was then inserted down the cannula of the exchange sheath. […] The cannulated bone screw assembly was pushed down the cannulated exchange sheath. […]
# Detector and diffusing fibers were placed in the same transverse plane. The diffusing fiber was moved incrementally with respect to the detector fiber and differences in power were measured at five different distances from the detector source using a computer aided photomultiplier tube. […]
# [7] = BPD uptake in the serum and spinal cord (fluorimetry, fluorescent microscopy); format: in vivo, rats (Sprague-Dawley)
# Method: Method: BPD-MA was administered to 10 rats (Sprague-Dawley, 150 gm) through a tail vein injection. Animals were then sacrificed using CO2 inhalation overdose at 16 minutes, 3 hrs, 6 hrs and 24 hrs following injection. Control animals without BPD-MA were euthanized in a similar fashion. Serum samples and spinal cord tissue samples were harvested from the animals at the time of euthanasia. A segment of spine was also fixed in 10% formalin for 7 days followed by decalcification for 7 days in 10% formic acid for fluoroscopic microscopic analysis. A control assay determined that BPD-MA fluorescence was not affected by formic acid. BPD-MA concentration within the serum and spinal cord tissue was then determined using fluorimetry. Briefly, the samples were solubilized and the samples were tested with excitation and emission spectra specific to BPD-MA. The fluorescence of the drug within the tissue was correlated to the specific uptake of the drug within the tissue. Fluorescent microscopy was also used to visualize the presence or absence of BPD-MA within the vertebrae and spinal cord at 1 hour, 3 hours and 24 hours.
# [8] = 25 J, drug-light interval 3 hrs
# [9] = 50 J, drug-light interval 3 hrs
# [10] = 75 J, drug-light interval 0.75 hrs
# [11] = 75 J, drug-light interval 3 hrs
# [12] = 100 J, drug-light interval 3 hrs
# [13] = 150 J, drug-light interval 3 hrs
substance,measurement,setting,value
benzoporphyrin derivative monoacid ring A [BPD-MA],Hind Leg Paralysis (animals),"[1]; 25 J, T12, drug light interval 3 hr, N = 5",0
same,Hind Leg Paralysis (animals),"[1]; 50 J, T12, drug light interval 3 hr, N = 5",2 unilateral
same,Hind Leg Paralysis (animals),"[1]; 75 J, T12, drug light interval 3 hr, N = 4",1 bilateral
same,Hind Leg Paralysis (animals),"[1]; 100 J, T12, drug light interval 3 hr, N = 3",2 unilateral
same,Hind Leg Paralysis (animals),"[1]; 125 J, T12, drug light interval 3 hr, N = 2",1 bilateral
same,Hind Leg Paralysis (animals),"[1]; 150 J, T12, drug light interval 0.25 hr, N = 4",4
same,Hind Leg Paralysis (animals),"[1]; 150 J, T12, drug light interval 3 hr, N = 4",3 bilateral
same,Antero-Posterior dimension of effect,[2]; [8],2.62 mm
same,Rostral-Caudal dimension of effect,[2]; [8],4.59 mm
same,Area of effect,"[2]; 25 J, drug-light interval 3 hrs, 2 mg/kg i.v.",8.435 mm^2
same,Antero-Posterior dimension of effect,[2]; [9],3.89 mm
same,Area of effect,[2]; [9],15.04 mm^2
same,Rostral-Caudal dimension of effect,[2]; [9],5.66 mm
same,Antero-Posterior dimension of effect,[2]; [10],5.05 mm
same,Area of effect,[2]; [10],82.47 mm^2
same,Rostral-Caudal dimension of effect,[2]; [10],17.47 mm
same,Antero-Posterior dimension of effect,[2]; [11],5.09 mm
same,Area of effect,[2]; [11],52.38 mm^2
same,Rostral-Caudal dimension of effect,[2]; [11],11.67 mm
same,Antero-Posterior dimension of effect,[2]; [12],5.05 mm
same,Area of effect,[2]; [12],45.49 mm^2
same,Rostral-Caudal dimension of effect,[2]; [12],13.8 mm
same,Antero-Posterior dimension of effect,[2]; [13],5.78 mm
same,Area of effect,[2]; [13],80.53 mm^2
same,Rostral-Caudal dimension of effect,[2]; [13],13.05 mm
same,diameter of largest area of effect,"[2]; 200 um fiber optical cable, treatment time 16 minutes",2.2 cm
same,ablation of tumor tissue,[2]; 24 hour drug light interval,No effect; also recorded: no difference
same,"effect on tumor, bone, bone marrow or spinal cord","[2]; drug only, no light",did not affect
same,decrease in tumor growth compared to control lesions,"[3]; 25 J, 3 hour drug light interval",66%
same,"PostRx/PreRx, Rx Area",[3]; [8],1.25
same,reduction of bioluminescent signal from the targeted site,"[3]; 150 J, 3 hour drug light interval, 48 hours following treatment",87%
same,decrease in tumor growth compared to control lesions,"[3]; 150 J, 3 hour drug light interval, one treatment",99.8%
same,"PostRx/PreRx, Rx Area","[3]; 150 J, drug light interval 3 hrs",0.139
same,Mean Count Rx Area,"[3]; Post-PDT (48 hours), 25 J, drug-light interval 3 hrs",2.33 × 10^4
same,Mean Count Rx Area,"[3]; Post-PDT (48 hours), 150 J, drug light interval 3 hrs",1.42 × 10^3
same,Mean Count Rx Area,"[3]; Pre-PDT, 25 J, drug-light interval 3 hrs (n = 2)",1.86 × 10^4
same,Mean Count Rx Area,"[3]; Pre-PDT, 150 J, drug light interval 3 hrs (n = 5)",1.02 × 10^4
same,Death During PDT (animals),"[4]; MT-1 group, n = 20",0
same,Death Following Verteporfin Injection (animals),"[4]; MT-1 group, n = 20",1
same,Death During PDT (animals),"[4]; MT-1luc+ group, n = 30",1
same,Death Following Verteporfin Injection (animals),"[4]; MT-1luc+ group, n = 30",2
same,"Mean (absorbance), SRB assay","MT-1 cells; Group 1: drug 1 ug/ml, light 200 J/cm^2, 690 nm, 8 hour incubation",.2923
same,"Mean (absorbance), SRB assay","MT-1 cells; Group 2: drug 1 ug/ml, light 25 J/cm^2",.1946
same,"Mean (absorbance), SRB assay","MT-1 cells; Group 3: drug 10 ug/ml, light 200 J/cm^2",.2558
same,"Mean (absorbance), SRB assay","MT-1 cells; Group 4: drug 10 ug/ml, light 25 J/cm^2",.2049
same,"Mean (absorbance), SRB assay","MT-1 cells; Group 7: drug 1 ug/ml, no light",1.2392
same,difference in absorbance versus untreated wells,MT-1 cells; drug only,No significant difference
same,difference in absorbance versus untreated wells,MT-1 cells; wells treated with light and drug,significant difference
same,lesions completely ablated,[5],33%
same,complications attributed to the PDT,[6],no hindleg paralysis
same,BPD-MA fluorescence in bone marrow,[7]; 1 hour,contained signal
same,BPD-MA fluorescence in spinal cord,[7]; 1 hour,no drug being present
same,BPD-MA fluorescence in bone marrow,[7]; 3 hours,intense signal
same,BPD-MA fluorescence in spinal cord,[7]; 3 hours,intense signal
same,fluorescence of the drug within the spinal cord and vertebrae,[7]; 24 hours,returned to baseline levels
same,serum drug concentration,[7]; after 3 hours,began to decline
same,serum drug concentration,[7]; by 24 hours post injection,returned to baseline
same,uptake of BPD-MA in spinal cord,[7]; drug uptake studies (fluorimetry),minimal uptake
same,delay of uptake into the spinal cord,[7]; fluorescence microscopy,greater than 1 hour
same,serum drug concentration,[7]; over 15 minutes post tail vein injection,rapid increase
